Experimental data published in ChEMBL document CHEMBL1201862, “PubChem BioAssay data set” (2004).
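Five concentrations, 48 hours, 96-well plates. At the GI50, growth is halved.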 Activity calls are given as the source filed them. No stated cut-off is given here; in the data, active = GI50 up to about 1.1 µM and inactive = higher.

Key:
Test in all cases: NCI-60 cell line screen, 48 h
A549 = system: A549
DU-145 = system: DU-145
HCT-116 = system: HCT-116
HL-60 = system: HL-60
K562 = system: K562
MCF7 = system: MCF7
MDA-MB-231 = system: MDA-MB-231
Malme-3M = system: Malme-3M
NCI-H23 = system: NCI-H23
NCI-H460 = system: NCI-H460
NCI-H522 = system: NCI-H522
NCI/ADR-RES = system: NCI/ADR-RES
OVCAR-5 = system: OVCAR-5
SF-268 = system: SF-268
SF-539 = system: SF-539
SK-MEL-28 = system: SK-MEL-28
SK-OV-3 = system: SK-OV-3
SN12C = system: SN12C
T47D = system: T47D
RXF 393 = system: RXF 393

[N-]=[N+]=NCC1OCC(O)C(OCc2ccccc2)C1OCc1ccccc1 (centres undefined)
GI50 (A549): 70 µM (inactive)
GI50 (DU-145): 86.7 µM (inactive)
GI50 (HCT-116): 95.9 µM (inactive)
GI50 (HL-60): 70.6 µM (inactive)
GI50 (K562): 51.4 µM (inactive)
GI50 (MCF7): > 100 µM (inactive)
GI50 (MDA-MB-231): > 100 µM (inactive)
GI50 (Malme-3M): > 10 µM (inactive)
GI50 (NCI-H23): > 100 µM (inactive)
GI50 (NCI-H460): 48.2 µM (inactive)
GI50 (NCI-H522): 70 µM (inactive)
GI50 (NCI/ADR-RES): > 100 µM (inactive)
GI50 (OVCAR-5): > 100 µM (inactive)
GI50 (SF-268): > 100 µM (inactive)
GI50 (SF-539): > 100 µM (inactive)
GI50 (SK-MEL-28): > 100 µM (inactive)
GI50 (SK-OV-3): > 100 µM (inactive)
GI50 (SN12C): > 100 µM (inactive)
GI50 (T47D): 25.1 µM (inactive)

NCCCN1CCN(CCCNc2ccc3ncn4c5ccccc5c(=O)c2c34)CC1
GI50 (A549): 1.95 µM (inactive)
GI50 (DU-145): 1.46 µM (inactive)
GI50 (HCT-116): 1.03 µM (active)
GI50 (HL-60): 0.861 µM (active)
GI50 (K562): 1.09 µM (active)
GI50 (MCF7): 1.32 µM (inactive)
GI50 (MDA-MB-231): 0.783 µM (active)
GI50 (Malme-3M): 2.36 µM (inactive)
GI50 (NCI-H23): 2.51 µM (inactive)
GI50 (NCI-H460): 1.31 µM (inactive)
GI50 (NCI-H522): 0.456 µM (active)
GI50 (NCI/ADR-RES): 13.7 µM (inactive)
GI50 (OVCAR-5): 3.61 µM (inactive)
GI50 (SF-268): 1.26 µM (inactive)
GI50 (SF-539): 1.42 µM (inactive)
GI50 (SK-MEL-28): 4.47 µM (inactive)
GI50 (SK-OV-3): 4.98 µM (inactive)
GI50 (SN12C): 0.826 µM (active)
GI50 (T47D): 3.02 µM (inactive)

O=C(O)c1ccc(Nc2nc3ccccc3nc2C(=O)O)cc1
GI50 (A549): > 100 µM (inactive)
GI50 (DU-145): > 100 µM (inactive)
GI50 (HCT-116): > 100 µM (inactive)
GI50 (HL-60): > 10 µM (inactive)
GI50 (K562): > 100 µM (inactive)
GI50 (MCF7): > 100 µM (inactive)
GI50 (MDA-MB-231): > 100 µM (inactive)
GI50 (Malme-3M): > 100 µM (inactive)
GI50 (NCI-H23): > 100 µM (inactive)
GI50 (NCI-H460): > 100 µM (inactive)
GI50 (NCI-H522): > 100 µM (inactive)
GI50 (NCI/ADR-RES): > 100 µM (inactive)
GI50 (OVCAR-5): > 100 µM (inactive)
GI50 (SF-268): > 100 µM (inactive)
GI50 (SF-539): > 100 µM (inactive)
GI50 (SK-MEL-28): > 100 µM (inactive)
GI50 (SK-OV-3): > 100 µM (inactive)
GI50 (SN12C): > 100 µM (inactive)
GI50 (T47D): > 100 µM (inactive)

Sc1nnc(-c2ccccc2Nc2ccccc2-c2nnc(S)n2-c2ccccc2)n1-c1ccccc1
GI50 (DU-145): 56.6 µM (inactive)
GI50 (HCT-116): 63.1 µM (inactive)
GI50 (HL-60): 22.8 µM (inactive)
GI50 (K562): 52.7 µM (inactive)
GI50 (MCF7): 37.2 µM (inactive)
GI50 (MDA-MB-231): 22.7 µM (inactive)
GI50 (NCI-H23): 34.4 µM (inactive)
GI50 (NCI-H460): 37.1 µM (inactive)
GI50 (NCI-H522): 26.7 µM (inactive)
GI50 (NCI/ADR-RES): 84.1 µM (inactive)
GI50 (OVCAR-5): 47.9 µM (inactive)
GI50 (RXF 393): 35.6 µM (inactive)
GI50 (SF-268): 69.7 µM (inactive)
GI50 (SF-539): 28.8 µM (inactive)
GI50 (SK-MEL-28): 19.5 µM (inactive)
GI50 (SN12C): 26.5 µM (inactive)
GI50 (T47D): 23.9 µM (inactive)

c1ccc(-c2nc3ccccc3n3nnnc23)cc1
GI50 (A549): > 100 µM (inactive)
GI50 (DU-145): > 100 µM (inactive)
GI50 (HCT-116): > 100 µM (inactive)
GI50 (HL-60): > 100 µM (inactive)
GI50 (K562): > 100 µM (inactive)
GI50 (MCF7): > 100 µM (inactive)
GI50 (MDA-MB-231): > 100 µM (inactive)
GI50 (Malme-3M): > 100 µM (inactive)
GI50 (NCI-H23): > 100 µM (inactive)
GI50 (NCI-H460): > 100 µM (inactive)
GI50 (NCI/ADR-RES): > 100 µM (inactive)
GI50 (OVCAR-5): > 100 µM (inactive)
GI50 (RXF 393): 52.1 µM (inactive)
GI50 (SF-268): 75.7 µM (inactive)
GI50 (SF-539): > 100 µM (inactive)
GI50 (SK-MEL-28): > 100 µM (inactive)
GI50 (SK-OV-3): > 100 µM (inactive)
GI50 (SN12C): > 100 µM (inactive)
GI50 (T47D): 20.2 µM (inactive)

O=C(/C=C/c1ccsc1)c1cccs1
GI50 (A549): 33 µM (inactive)
GI50 (DU-145): > 100 µM (inactive)
GI50 (HCT-116): 15.6 µM (inactive)
GI50 (K562): 28.2 µM (inactive)
GI50 (MCF7): 17 µM (inactive)
GI50 (MDA-MB-231): 36 µM (inactive)
GI50 (Malme-3M): 50 µM (inactive)
GI50 (NCI-H23): 22.5 µM (inactive)
GI50 (NCI-H460): 41.7 µM (inactive)
GI50 (NCI-H522): 18.7 µM (inactive)
GI50 (NCI/ADR-RES): 20.7 µM (inactive)
GI50 (OVCAR-5): 44.1 µM (inactive)
GI50 (RXF 393): 18.9 µM (inactive)
GI50 (SF-268): 28.2 µM (inactive)
GI50 (SF-539): 32.9 µM (inactive)
GI50 (SK-MEL-28): 20.9 µM (inactive)
GI50 (SK-OV-3): 39.1 µM (inactive)
GI50 (SN12C): 19.5 µM (inactive)
GI50 (T47D): 20 µM (inactive)

COc1ccc2nc3cccc([N+](=O)[O-])c3c(NCCN(C)C)c2c1
GI50 (A549): 0.0515 µM (active)
GI50 (DU-145): 0.0223 µM (active)
GI50 (HCT-116): 0.0251 µM (active)
GI50 (K562): 0.0292 µM (active)
GI50 (MCF7): 0.0555 µM (active)
GI50 (MDA-MB-231): 0.156 µM (active)
GI50 (Malme-3M): 0.0877 µM (active)
GI50 (NCI-H23): 0.136 µM (active)
GI50 (NCI-H460): 0.0165 µM (active)
GI50 (NCI-H522): 0.0209 µM (active)
GI50 (NCI/ADR-RES): 0.138 µM (active)
GI50 (OVCAR-5): 0.173 µM (active)
GI50 (RXF 393): 0.0851 µM (active)
GI50 (SF-268): 0.145 µM (active)
GI50 (SF-539): 0.147 µM (active)
GI50 (SK-MEL-28): 0.161 µM (active)
GI50 (SK-OV-3): 0.255 µM (active)
GI50 (SN12C): 0.11 µM (active)
GI50 (T47D): 0.146 µM (active)

COC1=C(OC)C(=O)C(Cc2c(Cl)nc3sc(C)cn23)=C(C)C1=O
GI50 (A549): 17.2 µM (inactive)
GI50 (DU-145): 22.1 µM (inactive)
GI50 (HCT-116): 23 µM (inactive)
GI50 (K562): 11.9 µM (inactive)
GI50 (MCF7): 19.5 µM (inactive)
GI50 (MDA-MB-231): 12.2 µM (inactive)
GI50 (Malme-3M): 12.2 µM (inactive)
GI50 (NCI-H23): 13.7 µM (inactive)
GI50 (NCI-H460): 16.7 µM (inactive)
GI50 (NCI-H522): 13.4 µM (inactive)
GI50 (NCI/ADR-RES): 14.6 µM (inactive)
GI50 (OVCAR-5): 18.2 µM (inactive)
GI50 (RXF 393): 20.3 µM (inactive)
GI50 (SF-268): 16.6 µM (inactive)
GI50 (SF-539): 19 µM (inactive)
GI50 (SK-MEL-28): 17.9 µM (inactive)
GI50 (SK-OV-3): 17.5 µM (inactive)
GI50 (SN12C): 15.9 µM (inactive)
GI50 (T47D): 23.9 µM (inactive)

COc1c2ccoc2c(OC)c2oc(=O)ccc12 [ISOPIMPINELLIN]
GI50 (A549): > 100 µM (inactive)
GI50 (DU-145): > 100 µM (inactive)
GI50 (HCT-116): > 100 µM (inactive)
GI50 (HL-60): > 100 µM (inactive)
GI50 (K562): > 100 µM (inactive)
GI50 (MCF7): > 100 µM (inactive)
GI50 (MDA-MB-231): > 100 µM (inactive)
GI50 (NCI-H23): > 100 µM (inactive)
GI50 (NCI-H460): > 100 µM (inactive)
GI50 (NCI-H522): > 100 µM (inactive)
GI50 (NCI/ADR-RES): > 100 µM (inactive)
GI50 (OVCAR-5): > 100 µM (inactive)
GI50 (RXF 393): 45.8 µM (inactive)
GI50 (SF-268): > 100 µM (inactive)
GI50 (SF-539): > 100 µM (inactive)
GI50 (SK-MEL-28): > 100 µM (inactive)
GI50 (SN12C): > 100 µM (inactive)
GI50 (T47D): > 100 µM (inactive)

COCOc1ccc(C(=O)Oc2cccc3c2OC(C)(C)O3)c(OCOC)c1
GI50 (DU-145): > 100 µM (inactive)
GI50 (HCT-116): > 100 µM (inactive)
GI50 (HL-60): 0.0181 µM (active)
GI50 (K562): 56.4 µM (inactive)
GI50 (MCF7): 33.2 µM (inactive)
GI50 (MDA-MB-231): 15.7 µM (inactive)
GI50 (NCI-H23): < 0.01 µM (active)
GI50 (NCI-H460): 56 µM (inactive)
GI50 (NCI/ADR-RES): > 100 µM (inactive)
GI50 (OVCAR-5): > 100 µM (inactive)
GI50 (RXF 393): 78.2 µM (inactive)
GI50 (SF-268): 35.6 µM (inactive)
GI50 (SF-539): 37.7 µM (inactive)
GI50 (SK-MEL-28): 9.66 µM (inactive)
GI50 (SK-OV-3): > 100 µM (inactive)
GI50 (SN12C): > 100 µM (inactive)
GI50 (T47D): 37.8 µM (inactive)

COc1ccc(N[C@H](C[S+]([O-])c2ccc(C)cc2)c2ccc(F)cc2)cc1 (some centres undefined)
GI50 (A549): 43 µM (inactive)
GI50 (DU-145): 96.6 µM (inactive)
GI50 (HCT-116): > 100 µM (inactive)
GI50 (K562): > 100 µM (inactive)
GI50 (MCF7): 16.6 µM (inactive)
GI50 (MDA-MB-231): 40.5 µM (inactive)
GI50 (Malme-3M): 31.9 µM (inactive)
GI50 (NCI-H23): 13.2 µM (inactive)
GI50 (NCI-H460): 91.2 µM (inactive)
GI50 (NCI-H522): 13.2 µM (inactive)
GI50 (NCI/ADR-RES): 26.9 µM (inactive)
GI50 (OVCAR-5): > 100 µM (inactive)
GI50 (RXF 393): 48.4 µM (inactive)
GI50 (SF-268): 24.7 µM (inactive)
GI50 (SF-539): 22.3 µM (inactive)
GI50 (SK-MEL-28): > 100 µM (inactive)
GI50 (SK-OV-3): 72.3 µM (inactive)
GI50 (SN12C): 54.3 µM (inactive)
GI50 (T47D): 10.3 µM (inactive)
